# Assay results from patent US20240025884A1 (Dong-A ST Co., Ltd., priority 2022, published 2024).
# Biological target: GCN2 (Homo sapiens (Human), UniProt Q9P2K8)
# Assay: GCN2 Biochemical Assay (TR-FRET, GFP-eIF2S1 substrate phosphorylation)
# Conditions: read-out: IC50 (GCN2 Inhibitory Activity)
# Method in brief: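 In-house GCN2 (1.6 nM 2× stock) phosphorylates GFP-eIF2S1 (50 nM 2× stock) with ATP (0.2 mM 2× stock) and tRNA, pH 7.5, 70 min at room temperature; 10-point 3.16-fold compound series. TR-FRET detection with Tb-anti-phospho antibody, 2–3 h, Ex 340/Em 490/520 nm; artifact plate spiked with phospho-substrate.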
# GCN2, sequence (Q9P2K8 whole entry): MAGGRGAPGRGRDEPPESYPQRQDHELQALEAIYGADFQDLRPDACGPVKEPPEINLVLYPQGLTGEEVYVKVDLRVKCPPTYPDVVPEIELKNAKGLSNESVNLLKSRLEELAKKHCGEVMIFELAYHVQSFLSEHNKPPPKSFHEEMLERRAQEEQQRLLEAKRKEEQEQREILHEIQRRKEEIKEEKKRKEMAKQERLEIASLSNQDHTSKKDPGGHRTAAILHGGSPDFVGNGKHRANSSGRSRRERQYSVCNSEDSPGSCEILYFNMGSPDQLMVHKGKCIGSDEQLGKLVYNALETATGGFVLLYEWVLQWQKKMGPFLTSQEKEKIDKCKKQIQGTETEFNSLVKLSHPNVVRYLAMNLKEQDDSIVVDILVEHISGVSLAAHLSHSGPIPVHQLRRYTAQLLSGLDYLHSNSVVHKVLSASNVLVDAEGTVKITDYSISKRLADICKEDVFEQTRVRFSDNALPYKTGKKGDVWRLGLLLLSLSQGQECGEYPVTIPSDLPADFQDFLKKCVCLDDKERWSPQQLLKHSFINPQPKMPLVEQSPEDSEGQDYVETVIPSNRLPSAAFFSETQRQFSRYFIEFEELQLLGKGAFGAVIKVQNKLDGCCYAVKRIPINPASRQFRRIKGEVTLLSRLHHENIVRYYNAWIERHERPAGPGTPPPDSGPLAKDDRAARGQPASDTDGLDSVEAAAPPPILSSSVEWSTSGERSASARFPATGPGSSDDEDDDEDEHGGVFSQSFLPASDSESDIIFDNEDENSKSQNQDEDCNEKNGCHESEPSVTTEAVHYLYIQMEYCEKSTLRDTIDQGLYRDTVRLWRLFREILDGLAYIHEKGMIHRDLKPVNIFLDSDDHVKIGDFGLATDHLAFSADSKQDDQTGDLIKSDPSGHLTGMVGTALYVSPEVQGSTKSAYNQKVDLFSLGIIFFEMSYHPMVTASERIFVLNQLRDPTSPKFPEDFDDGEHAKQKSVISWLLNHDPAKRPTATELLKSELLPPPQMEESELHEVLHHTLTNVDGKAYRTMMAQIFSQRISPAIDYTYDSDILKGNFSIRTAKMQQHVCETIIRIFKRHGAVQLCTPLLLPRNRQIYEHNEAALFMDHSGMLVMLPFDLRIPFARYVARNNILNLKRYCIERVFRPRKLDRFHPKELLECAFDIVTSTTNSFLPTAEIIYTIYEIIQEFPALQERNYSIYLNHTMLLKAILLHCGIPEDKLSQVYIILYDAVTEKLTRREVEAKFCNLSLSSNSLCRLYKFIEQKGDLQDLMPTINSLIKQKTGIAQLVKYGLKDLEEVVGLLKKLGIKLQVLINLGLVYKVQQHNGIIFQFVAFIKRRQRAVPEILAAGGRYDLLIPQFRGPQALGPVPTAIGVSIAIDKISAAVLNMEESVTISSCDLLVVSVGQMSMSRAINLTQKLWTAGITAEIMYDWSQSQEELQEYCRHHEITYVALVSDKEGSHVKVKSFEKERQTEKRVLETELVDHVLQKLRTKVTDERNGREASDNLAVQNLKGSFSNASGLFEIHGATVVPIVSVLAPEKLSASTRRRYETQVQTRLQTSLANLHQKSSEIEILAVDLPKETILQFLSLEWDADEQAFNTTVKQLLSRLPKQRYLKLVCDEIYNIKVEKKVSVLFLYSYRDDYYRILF
row,SMILES,IC50 [nM]
1,"Cc1cnc(Nc2cc(C)n(C)n2)nc1-c1c[nH]c2c(NC(=O)CN3CC[C@H](Oc4cc(F)nc(NC5CC5)n4)C3)cccc12 [Example 234, (S)-2-(3-((2-(cyclopropylamino)-6-fluoropyrimidin-4-yl)oxy)pyrrolidin-1-yl)-N-(3-(2-((1,5-dimethyl-1H-pyrazol-3-yl)amino)-5-methylpyrimidin-4-yl)-1H-indol-7-yl)acetamide]",< 10
2,"Cc1cnc(NC2CC2)nc1O[C@H]1CCN(CC(=O)Nc2cccc3c(-c4nc(Nc5cc(C)n(C)n5)ncc4C)c[nH]c23)C1 [Example 235, (S)-2-(3-((2-(cyclopropylamino)-5-methylpyrimidin-4-yl)oxy)pyrrolidin-1-yl)-N-(3-(2-((1,5-dimethyl-1H-pyrazol-3-yl)amino)-5-methylpyrimidin-4-yl)-1H-indol-7-yl)acetamide]",10 to 100
3,"Cc1cc(O[C@H]2CCN(CC(=O)Nc3cccc4c(-c5nc(Nc6cc(C)n(C)n6)ncc5C)c[nH]c34)C2)nc(NC2CC2)n1 [Example 236, (S)-2-(3-((2-(cyclopropylamino)-6-methylpyrimidin-4-yl)oxy)pyrrolidin-1-yl)-N-(3-(2-((1,5-dimethyl-1H-pyrazol-3-yl)amino)-5-methylpyrimidin-4-yl)-1H-indol-7-yl)acetamide]",< 10
4,"Cc1cnc(Nc2cc(C)n(C)n2)nc1-c1c[nH]c2c(NC(=O)CN3CC[C@H](Oc4cc(C(F)(F)F)nc(NC5CC5)n4)C3)cccc12 [Example 237, (S)-2-(3-((2-(cyclopropylamino)-6-(trifluoromethyl)pyrimidin-4-yl)oxy)pyrrolidin-1-yl)-N-(3-(2-((1,5-dimethyl-1H-pyrazol-3-yl)amino)-5-methylpyrimidin-4-yl)-1H-indol-7-yl)acetamide]",10 to 100
5,"COc1cc(O[C@H]2CCN(CC(=O)Nc3cccc4c(-c5nc(Nc6cc(C)n(C)n6)ncc5C)c[nH]c34)C2)nc(NC2CC2)n1 [Example 238, (S)-2-(3-((2-(cyclopropylamino)-6-methoxypyrimidin-4-yl)oxy)pyrrolidin-1-yl)-N-(3-(2-((1,5-dimethyl-1H-pyrazol-3-yl)amino)-5-methylpyrimidin-4-yl)-1H-indol-7-yl)acetamide]",< 10
6,"Cc1cnc(Nc2cc(C)n(C)n2)nc1-c1c[nH]c2c(NC(=O)CN3CC[C@H](Oc4cnc(NCCN(C)C)nc4)C3)cccc12 [Example 239, (S)-N-(3-(2-((1,5-dimethyl-1H-pyrazol-3-yl)amino)-5-methylpyrimidin-4-yl)-1H-indol-7-yl)-2-(3-((2-((2-(dimethylamino)ethyl)amino)pyrimidin-5-yl)oxy)pyrrolidin-1-yl)acetamide]",10 to 100
7,"Cc1cnc(Nc2cc(C)n(C)n2)nc1-c1c[nH]c2c(NC(=O)CN3CC[C@H](Oc4cnc(N(C)C)nc4)C3)cccc12 [Example 240, (S)-N-(3-(2-((1,5-dimethyl-1H-pyrazol-3-yl)amino)-5-methylpyrimidin-4-yl)-1H-indol-7-yl)-2-(3-((2-(dimethylamino)pyrimidin-5-yl)oxy)pyrrolidin-1-yl)acetamide]",10 to 100
8,"Cc1cnc(Nc2cc(C)n(C)n2)nc1-c1c[nH]c2c(NC(=O)CN3CC[C@H](Oc4cnc(N5CCOCC5)nc4)C3)cccc12 [Example 241, (S)-N-(3-(2-((1,5-dimethyl-1H-pyrazol-3-yl)amino)-5-methylpyrimidin-4-yl)-1H-indol-7-yl)-2-(3-((2-morpholinopyrimidin-5-yl)oxy)pyrrolidin-1-yl)acetamide]",10 to 100
9,"Cc1cnc(Nc2cc(C)n(C)n2)nc1-c1c[nH]c2c(NC(=O)CN3CC[C@H](Oc4cnc(N5CCN(C)CC5)nc4)C3)cccc12 [Example 242, (S)-N-(3-(2-((1,5-dimethyl-1H-pyrazol-3-yl)amino)-5-methylpyrimidin-4-yl)-1H-indol-7-yl)-2-(3-((2-(4-methylpiperazin-1-yl)pyrimidin-5-yl)oxy)pyrrolidin-1-yl)acetamide]",10 to 100
10,"Cc1cnc(Nc2cc(C)n(C)n2)nc1-c1c[nH]c2c(NC(=O)CN3CC[C@H](Oc4cncc(NC5CC5)n4)C3)cccc12 [Example 243, (S)-2-(3-((6-(cyclopropylamino)pyrazin-2-yl)oxy)pyrrolidin-1-yl)-N-(3-(2-((1,5-dimethyl-1H-pyrazol-3-yl)amino)-5-methylpyrimidin-4-yl)-1H-indol-7-yl)acetamide]",10 to 100
11,"CCNc1cncc(O[C@H]2CCN(CC(=O)Nc3cccc4c(-c5nc(Nc6cc(C)n(C)n6)ncc5C)c[nH]c34)C2)n1 [Example 244, (S)-N-(3-(2-((1,5-dimethyl-1H-pyrazol-3-yl)amino)-5-methylpyrimidin-4-yl)-1H-indol-7-yl)-2-(3-((6-(ethylamino)pyrazin-2-yl)oxy)pyrrolidin-1-yl)acetamide]",10 to 100
12,"CCCNc1cncc(O[C@H]2CCN(CC(=O)Nc3cccc4c(-c5nc(Nc6cc(C)n(C)n6)ncc5C)c[nH]c34)C2)n1 [Example 245, (S)-N-(3-(2-((1,5-dimethyl-1H-pyrazol-3-yl)amino)-5-methylpyrimidin-4-yl)-1H-indol-7-yl)-2-(3-((6-(propylamino)pyrazin-2-yl)oxy)pyrrolidin-1-yl)acetamide]",10 to 100
13,"Cc1cnc(Nc2cc(C)n(C)n2)nc1-c1c[nH]c2c(NC(=O)CN3CC[C@H](Oc4cncc(NCCO)n4)C3)cccc12 [Example 246, (S)-N-(3-(2-((1,5-dimethyl-1H-pyrazol-3-yl)amino)-5-methylpyrimidin-4-yl)-1H-indol-7-yl)-2-(3-((6-((2-hydroxyethyl)amino)pyrazin-2-yl)oxy)pyrrolidin-1-yl)acetamide]",10 to 100
14,"Cc1cnc(Nc2cc(C)n(C)n2)nc1-c1c[nH]c2c(NC(=O)CN3CC[C@H](Oc4cncc(NCCN(C)C)n4)C3)cccc12 [Example 247, (S)-N-(3-(2-((1,5-dimethyl-1H-pyrazol-3-yl)amino)-5-methylpyrimidin-4-yl)-1H-indol-7-yl)-2-(3-((6-((2-(dimethylamino)ethyl)amino)pyrazin-2-yl)oxy)pyrrolidin-1-yl)acetamide]",< 10
15,"Cc1cnc(Nc2cc(C)n(C)n2)nc1-c1c[nH]c2c(NC(=O)CN3CC[C@H](Oc4cc(-c5ccccc5)ncn4)C3)cccc12 [Example 248, (S)-N-(3-(2-((1,5-dimethyl-1H-pyrazol-3-yl)amino)-5-methylpyrimidin-4-yl)-1H-indol-7-yl)-2-(3-((6-phenylpyrimidin-4-yl)oxy)pyrrolidin-1-yl)acetamide]",10 to 100
16,"Cc1cnc(Nc2cc(C)n(C)n2)nc1-c1c[nH]c2c(NC(=O)CN3CC[C@H](Oc4cc(-c5cnn(C)c5)ncn4)C3)cccc12 [Example 249, (S)-N-(3-(2-((1,5-dimethyl-1H-pyrazol-3-yl)amino)-5-methylpyrimidin-4-yl)-1H-indol-7-yl)-2-(3-((6-(1-methyl-1H-pyrazol-4-yl)pyrimidin-4-yl)oxy)pyrrolidin-1-yl)acetamide]",< 10
17,Cc1cnc(Nc2cc(C)n(C)n2)nc1-c1c[nH]c2c(NC(=O)CN3CC[C@H](Oc4cc(C5=CCC(C)(C)CC5)ncn4)C3)cccc12 [Example 250],100 to 1000
18,"Cc1cnc(Nc2cc(C)n(C)n2)nc1-c1c[nH]c2c(NC(=O)CN3CC[C@H](Oc4cc(C5=CCOCC5)ncn4)C3)cccc12 [Example 251, (S)-2-(3-((6-(3,6-dihydro-2H-pyran-4-yl)pyrimidin-4-yl)oxy)pyrrolidin-1-yl)-N-(3-(2-((1,5-dimethyl-1H-pyrazol-3-yl)amino)-5-methylpyrimidin-4-yl)-1H-indol-7-yl)acetamide]",10 to 100
19,"Cc1cnc(Nc2cc(C)n(C)n2)nc1-c1c[nH]c2c(NC(=O)CN3CC[C@H](Oc4nccc(C5=CCC(C)(C)CC5)n4)C3)cccc12 [Example 252, (S)-N-(3-(2-((1,5-dimethyl-1H-pyrazol-3-yl)amino)-5-methylpyrimidin-4-yl)-1H-indol-7-yl)-2-(3-((4-(4,4-dimethylcyclohex-1-en-1-yl)pyrimidin-2-yl)oxy)pyrrolidin-1-yl)acetamide]",10 to 100
20,"Cc1cnc(Nc2cc(C)n(C)n2)nc1-c1c[nH]c2c(NC(=O)CN3CC[C@H](Oc4nccc(C5=CCOCC5)n4)C3)cccc12 [Example 253, (S)-2-(3-((4-(3,6-dihydro-2H-pyran-4-yl)pyrimidin-2-yl)oxy)pyrrolidin-1-yl)-N-(3-(2-((1,5-dimethyl-1H-pyrazol-3-yl)amino)-5-methylpyrimidin-4-yl)-1H-indol-7-yl)acetamide]",10 to 100
21,"Cc1cnc(Nc2cc(C)n(C)n2)nc1-c1c[nH]c2c(NC(=O)CN3CC[C@H](Oc4nccc(-c5ccccc5)n4)C3)cccc12 [Example 254, (S)-N-(3-(2-((1,5-dimethyl-1H-pyrazol-3-yl)amino)-5-methylpyrimidin-4-yl)-1H-indol-7-yl)-2-(3-((4-phenylpyrimidin-2-yl)oxy)pyrrolidin-1-yl)acetamide]",10 to 100
22,"Cc1cnc(Nc2cc(C)n(C)n2)nc1-c1c[nH]c2c(NC(=O)CN3CC[C@H](Oc4ncc(-c5cccnc5)cn4)C3)cccc12 [Example 255, (S)-N-(3-(2-((1,5-dimethyl-1H-pyrazol-3-yl)amino)-5-methylpyrimidin-4-yl)-1H-indol-7-yl)-2-(3-((5-(pyridin-3-yl)pyrimidin-2-yl)oxy)pyrrolidin-1-yl)acetamide]",10 to 100
23,"Cc1cnc(Nc2cc(C)n(C)n2)nc1-c1c[nH]c2c(NC(=O)CN3CC[C@H](Oc4ncc(-c5ccncc5)cn4)C3)cccc12 [Example 256, (S)-N-(3-(2-((1,5-dimethyl-1H-pyrazol-3-yl)amino)-5-methylpyrimidin-4-yl)-1H-indol-7-yl)-2-(3-((5-(pyridin-4-yl)pyrimidin-2-yl)oxy)pyrrolidin-1-yl)acetamide]",10 to 100
24,"Cc1cnc(Nc2cc(C)n(C)n2)nc1-c1c[nH]c2c(NC(=O)CN3CC[C@H](Oc4cnc(-c5cccnc5)nc4)C3)cccc12 [Example 258, (S)-N-(3-(2-((1,5-dimethyl-1H-pyrazol-3-yl)amino)-5-methylpyrimidin-4-yl)-1H-indol-7-yl)-2-(3-((2-(pyridin-3-yl)pyrimidin-5-yl)oxy)pyrrolidin-1-yl)acetamide]",10 to 100
